Measurements as given in US7834148B2, “Protein phosphorylation imaging systems, methods of making phosphorylation imaging systems, and methods of use thereof” (Stanford University, priority 2006, dated 2010).

Key:
[1] = Water solubility (statement); assay type: physicochemical
[2] = test system: phosphorylated Akt(S^473); test: Phosphorylation-specific western blotting of Akt in cell lysates; assay type: cell-based, human; conditions: LY 24 hours or perifosine 6 hours
Procedure: To validate AS1T as a genetically-encoded reporter for indirect imaging of endogenous Akt kinase activity, confirmation needed to be made that inhibition of endogenous Akt phosphorylation/kinase activities by LY and perifosine corresponded to increase in complemented FL activities in 293T/AS1T cells, but not in 293T/AS1A cells. 293T/AS1T and 293T/AS1A cells were treated with perifosine (6 hours), LY (24 hours) and their respective carrier controls. Complemented FL activities were determined by bioluminescence imaging of intact cells while Akt phosphorylation status/kinase activities in cell lysates were determined by phosphorylation-specific western blotting and in vitro kinase assay using purified glycogen synthase kinase 3β (GSK-3β) as the substrate, respectively. In 293T/AS1T cells treated with LY or perifosine, complemented FL activity increased (FIGS. 8a and 8c), while the amount of phosphorylated Akt (FIGS. 8b and 8d, top panels) and phosphorylated GSk-3, (FIGS. 8b and 8d, bottom panel) decreased, relative to carrier control treated cells. […]
To determine the expression of total and phosphorylated Akt in 293T/AS1A and 293T/AS1T, cell lysates from the triplicate wells from the above FL assay were combined and the protein concentrations were re-determined. […]

SMILES: CCCCCCCCCCCCCCCCCCOP(=O)([O-])OC1CC[N+](C)(C)CC1 [perifosine]
- water solubility [1]: water soluble
- amount of phosphorylated Akt ([2]; 293T/AS1A cells): decreased
- amount of phosphorylated Akt ([2]; 293T/AS1T cells, relative to carrier control): decreased
